In patent US10041047B2, “Compositions and methods for epithelial stem cell expansion and culture” (The Brigham and Women's Hospital, Inc., priority 2013, dated 2018):

Tests used:
[1] = tested on: Lgr5+ stem/progenitor cells derived from the mouse inner ear; experiment: Culture of inner ear (cochlear) Lgr5-GFP epithelial cells in Matrigel; type: cell-based; details: 8 day cultures; for cell proliferation on addition of a growth factor: EGF added to CV, others added to EGF+CV (FIG. 14D); for GFP expression on addition of a growth factor: added to EGF+CV or to the EGF+bFGF combination (FIG. 14D, 14E)
From the text: The same culture condition (EGF, Noggin, R-spondin1, or “ENR”) as used in Lgr5+ small intestinal stem cell cultures was first established.
Isolated organ of Corti from Lgr5-GFP mice were dissociated into single cells using accutase and cultured in multiple combinations of soluble factors and small molecules in Matrigel for 8 days. The resulting cultures were further dissociated into single cells and analyzed using FACS. […] In addition, the combination of EGF, bFGF and IGF-1 (designated as EFI) improved cell proliferation and GFP expression compared with the ENR condition (FIG. 14A-14C).
To further investigate the effects of individual growth factors when combined with CHIR and VPA, growth factors including Mitogenic growth factors (EGF, bFGF and IGF-1) as well as the Wnt agonist R-spondin 1 in combination with CHIR and VPA were tested.

[2] = tested on: Lgr5+ stem cells in small intestinal crypts; experiment: Small intestinal crypt culture from Lgr5-GFP mice in Matrigel: cell proliferation and Lgr5-GFP expression; type: cell-based, mouse; details: for effect to promote GFP expression: HDAC inhibitor added to ENR-C condition, 6 day crypt cultures, compared with VPA
Protocol: Crypts and single Lgr5-GFP cells were isolated as previously described (Sato et al., 2009). Briefly, the proximal half of the small intestine was harvested, opened longitudinally, and washed with cold PBS to remove luminal content. The tissue was then cut into 2-4 mm pieces with scissors and further washed 5-10 times with cold PBS by pipetting up and down using a 10-ml pipette. Tissue fragments were incubated with 2 mM EDTA in PBS for 30 min on ice. After removal of EDTA, tissue fragments were washed with PBS to release crypts. Supernatant fractions enriched in crypts were collected, passed through a 70 μm cell strainer and centrifuged at 300 g for 5 minutes. The cell pellet was re-suspended with cell culture media without growth factors and centrifuged at 150 g to remove single cells. Crypts were then cultured or used for single cell isolation. To obtain single cells, crypts were incubated in culture medium for 45 minutes at 37° C. and triturated with a glass pipette. Dissociated cells were passed through 20 μm cell strainer, negative stained with propidium iodide and single viable GFP-high cells were sorted by flow cytometry (FACS Aria, BD) as previously described (Sato et al., 2009). Small intestinal crypts isolated from Lgr5-EGFP-ires-CreERT2 mice were embedded in Matrigel and cultured under conventional culture conditions in the presence of EGF, Noggin and R-spondin 1 (collectively referred to as ENR) leading to organoids with crypts and villus-like domains and GFP^+ cells at the crypt tips, consistent with previous reports (Sato et al., 2009). Isolated crypts or single cells were cultured as previously described (Sato et al., 2009) with minimal modification. Briefly, crypts or single cells were entrapped in Matrigel and plated at the center of wells in a 24-well plate. After polymerization of Matrigel (growth factor reduced; BD Bioscience), 500 μl of culture medium (Advanced DMEM/F12 (Life Technologies)) was added containing growth factors including EGF (50 ng/ml, Life Technologies), Noggin (100 ng/ml, Peprotech) and R-spondin 1 (500 ng/ml, R&D) and small molecules including CHIR99021 (3 μM, Stemgent) and Valproic Acid (1 mM, Sigma-Aldrich). For comparison of different culture conditions, small molecules or growth factors were added to freshly isolated crypts immediately after plating in Matrigel to test the ability to minimize potential differentiation of the ISC within the crypts and thus sustain crypt cultures. Cell culture media was changed every other day. For single cell culture, cells were embedded in Matrigel containing Jagged-1 peptide (1 μM; AnaSpec) and Y-27632 (10 μM; Tocris) was added for the first 2 days. Cells were passaged either as cell colonies as previously described (Sato et al., 2009) or as single cells. For single cell passage, cell culture medium was removed and Accutase (Life Technologies) was added. After incubation at 37° C. for 10-20 minutes, cell colonies were dissociated into single cells by pipetting. Cells were then washed, embedded in fresh Matrigel and plated into 24-well plates. Cells cultured in the CV condition were passaged every 6 days at a 1:20 split ratio. Approximately half of the cultured crypts contained GFP+ cells, which is consistent with the in vivo GFP expression of Lgr5-GFP mice (FIG. 1).
The growth factors used in the ENR condition provide essential, but not adequate cues to sustain the self-renewal of Lgr5^+ stem cells. To identify factors essential to maintaining the self-renewal status of intestinal stem cells, selected small molecules that modulate signaling pathways of ISCs, such as Wnt, Notch, and BMP, were tested under the ENR condition, using the Lgr5-GFP reporter.
CHIR is a highly-specific GSK3 inhibitor that activates the Wnt/β-catenin signaling pathway (Bain et al., 2007), and has been used to maintain the self-renewal state of embryonic stem cells (Ying et al., 2008). […]

Lgr5+ stem cells = experiment: Controlled differentiation of Lgr5+ stem cells after CV culture (RT-PCR and staining of differentiation markers); type: cell-based, mouse; details: colonies from 6 days CV, then 4 days with ENR plus agents (FIG. 7B)
[3] = tested on: human small intestinal crypts; experiment: Culture of human small intestinal crypts: LGR5 expression (RT-PCR) and cell number; type: cell-based
From the text: Human small intestinal crypts were isolated from a resected normal small intestinal specimen and cultured as described in Example 1. The same cell culture solutions used in the culture of mouse small intestinal stem cells/crypts, which comprise a combination of CHIR99021 and VPA or Tubastatin A added to the ENR (EGF, Noggin, R-Spondin 1) condition, were compared to published cell culture solutions for human intestinal stem cells/crypts (Jung et al., 2011; Sato et al., 2011). RT-PCR was used to assess the maintenance of epithelial stem cells in the culture, specifically by determining the self-renewal or differentiation status. LGR5 was used as a stem cell marker and ALPI, MUC2, CHGA and LYZ were used as differentiation markers. Cell growth was assessed by counting the cell number in the cultures and by observing the morphology and size of colonies.

[4] = ENR-C condition with DAPT 5 μM, 3 days
[5] = combined with CHIR or Wnt3a, crypts 6 days (FIG. 9F)
[6] = multiple concentrations (FIG. 9E)

**Q.** Which “cell proliferation on addition of a growth factor” value [1] does the source give for EGF: Epidermal Growth Factor here?
**A.** The value was “greatly increased”.

**Q.** And the “requirement of growth factor to maintain self-renewal of Lgr5+ stem cells” value ([2]; crypts 6 days in the CV condition (CHIR 3 μM, VPA 1 mM))?
**A.** The value was “could be removed from the culture without impacting maintenance”.

**Q.** And the proliferation of crypts ([2]; growth factor in the CV condition, 6 days)?
**A.** The proliferation of crypts was “promoted the proliferation”.

**Q.** For CCCC(=O)[O-].[Na+] [Butyrate, Sodium butyrate], which “effect to promote GFP expression” value [2] is on record?
**A.** The value was “no or only moderate effects”.

**Q.** How did the Alpi expression (Lgr5+ stem cells) turn out when C[C@H](NC(=O)Cc1cc(F)cc(F)c1)C(=O)N[C@H](C(=O)OC(C)(C)C)c1ccccc1 [DAPT, N-[N-(3,5-Difluorophenacetyl)-L-alanyl]-S-phenylglycine t-butyl ester] was run?
**A.** Its Alpi expression is “induced expression”.

**Q.** What about the ChgA expression (Lgr5+ stem cells) of the same compound?
**A.** Its ChgA expression is “greatly elevated”.

**Q.** And the Lgr5 expression (Lgr5+ stem cells)?
**A.** The Lgr5 expression was “decreased”.

**Q.** What about the Lysozyme expression (Lgr5+ stem cells) of the same compound?
**A.** The Lysozyme expression was “greatly elevated”.

**Q.** And the Muc2 expression (Lgr5+ stem cells)?
**A.** Its Muc2 expression is “greatly elevated”.

**Q.** And the GFP expression [2, 4]?
**A.** Its GFP expression is “impaired”.

**Q.** And the cell proliferation [2, 4]?
**A.** Its cell proliferation is “impaired”.

**Q.** How did the “GFP expression on addition of a growth factor” value [1] turn out when IGF-1: mitogenic growth factor was run?
**A.** Its value is “slightly increased”.

**Q.** Which “effect to promote GFP expression” value [2] does the source give for O=C(CCCCCCC(=O)NO)NO [SBHA, Suberohydroxamic acid] here?
**A.** Its value is “no or only moderate effects”.

**Q.** Which results are given for Cc1ccc2nc(NC(=O)CSc3nc4c(c(=O)n3-c3ccccc3)SCC4)sc2c1 [IWP-2, N-(6-Methyl-2-benzothiazolyl)-2-[(3,4,6,7-tetrahydro-4-oxo-3-phenylthieno[3,2-d]pyrimidin-2-yl)thio]-acetamide]?
**A.** Alpi expression (Lgr5+ stem cells): preferentially induced; ChgA expression (Lgr5+ stem cells): modestly elevated; Lgr5 expression (Lgr5+ stem cells): completely abolished; Lysozyme expression (Lgr5+ stem cells): completely abolished; Muc2 expression (Lgr5+ stem cells): modestly elevated

**Q.** With Nc1ccccc1NC(=O)c1ccc(CNC(=O)OCc2cccnc2)cc1 [MS275] as the compound, how does the “effect to promote GFP expression” value [2] read?
**A.** Its value is “no or only moderate effects”.

**Q.** For bFGF: mitogenic growth factor, which “cell proliferation on addition of a growth factor” value [1] is on record?
**A.** The value was “further increased”.

**Q.** What about the “GFP expression on addition of a growth factor” value [1] of the same compound?
**A.** The value was “further increased”.

**Q.** How did the “effect to promote GFP expression” value [2] turn out when CC(=O)Nc1ccc(C(=O)Nc2ccccc2N)cc1 [CI-994] was run?
**A.** The value was “no or only moderate effects”.

**Q.** How did the “effect to promote GFP expression” value [2] turn out when Cn1c(/C=C/C(=O)NO)ccc1/C=C/C(=O)c1cccc(F)c1 [MC1568] was run?
**A.** The value was “no or only moderate effects”.

**Q.** Which “expression of stem cell marker LGR5” value ([3]; added to ENR (or to the CHIR+VPA condition), RT-PCR) does the source give for NC(=O)c1cccnc1 [Nicotinamide] here?
**A.** Its value is “without great impact”.

**Q.** What about the “proliferation of human small intestinal crypts (cell number)” value ([3]; cell numbers at day 9 after seeding (FIG. 25A)) of the same compound?
**A.** Its value is “increased the proliferation”.

**Q.** And the “effect to promote GFP expression” value [2]?
**A.** Its value is “no or only moderate effects”.

**Q.** What about the GFP expression [2, 5] of the same compound?
**A.** The GFP expression was “did not promote”.

**Q.** And the cell proliferation [2, 5]?
**A.** Its cell proliferation is “did not promote”.

**Q.** Which results are given for CC(/C=C/C(=O)NO)=C\[C@@H](C)C(=O)c1ccc(N(C)C)cc1 [TSA, Trichostatin A]?
**A.** GFP expression at multiple concentrations [2, 6]: maintained GFP expression; cell proliferation at higher concentration [2, 6]: marked proliferation inhibition effect
